Biological target: Plk1 (Homo sapiens, UniProt P53350)
Test: biochemical

Chain of Plk1 (P53350 20-338): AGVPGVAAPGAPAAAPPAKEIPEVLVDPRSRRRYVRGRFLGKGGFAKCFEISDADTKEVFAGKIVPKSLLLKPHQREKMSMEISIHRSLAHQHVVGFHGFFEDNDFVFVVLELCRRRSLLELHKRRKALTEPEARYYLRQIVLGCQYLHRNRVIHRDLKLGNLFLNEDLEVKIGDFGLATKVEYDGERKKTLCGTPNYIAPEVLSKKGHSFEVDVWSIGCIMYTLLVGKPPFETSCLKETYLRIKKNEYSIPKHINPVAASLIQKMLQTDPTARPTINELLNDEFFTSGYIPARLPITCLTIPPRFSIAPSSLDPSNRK

Structure (SMILES) | Ki
COc1cc(C(=O)N2CCN(C(=O)OC(C)(C)C)CC2)ccc1Nc1ncc2c(n1)N(C1CCCC1)CCC(=O)N2C [Compound I-7, 4-(9-cyclopentyl-6,7,8,9-tetrahydro-5-methyl-6-oxo-5H-pyrimido[4,5-b][1,4]diazepin-2-ylamino)-3-methoxyphenyl-(4-tert-butoxycarbonypiperazin-1-yl)methanone] | 0.01 to 0.1 µM
CNC(=O)c1ccc(Nc2ncc3c(n2)N(CC(F)(F)C(F)(F)F)CC(C)(C)C(=O)N3C)c(OC)c1 [Compound I-160, 4-(9-(2,2,3,3,3-pentafluoropropyl)-6,7,8,9-tetrahydro-5,7,7-trimethyl-6-oxo-5H-pyrimido[4,5-b][1,4]diazepin-2-ylamino)-3-methoxy-N-methylbenzamide] | 0.01 to 0.1 µM
COc1cc(C(=O)N[C@H]2CCN(CC3CC3)C2)ccc1Nc1ncc2c(n1)N(C1CCCC1)CC(C)(C)C(=O)N2C [Compound I-75, 4-(9-cyclopentyl-6,7,8,9-tetrahydro-5,7,7-trimethyl-6-oxo-5H-pyrimido[4,5-b][1,4]diazepin-2-ylamino)-N—((S)-1-(cyclopropylmethyl)pyrrolidin-3-yl)-3-methoxybenzamide] | < 0.01 µM
CN1C(=O)C(C)(C)CN(C2CCCC2)c2nc(Nc3cccc4c3CNC4=O)ncc21 [Compound I-124, 2-(1-oxoisoindolin-4-ylamino)-9-cyclopentyl-8,9-dihydro-5,7,7-trimethyl-5H-pyrimido[4,5-b][1,4]diazepin-6(7H)-one] | 0.01 to 0.1 µM
CNC(=O)c1ccc(Nc2ncc3c(n2)N(C2CCCC2)C[C@H](C)C(=O)N3C)c(OC)c1 [Compound I-17, 4-((S)-9-cyclopentyl-6,7,8,9-tetrahydro-5,7-dimethyl-6-oxo-5H-pyrimido[4,5-b][1,4]diazepin-2-ylamino)-3-methoxy-N-methylbenzamide] | < 0.01 µM
CNC(=O)c1ccc(Nc2ncc3c(n2)N(C2CCCC2)CC(C)(C)C(=O)N3C)c(OC)c1 [Compound I-16, 4-(9-cyclopentyl-6,7,8,9-tetrahydro-5,7,7-trimethyl-6-oxo-5H-pyrimido[4,5-b][1,4]diazepin-2-ylamino)-3-methoxy-N-methylbenzamide] | < 0.01 µM
COc1cc(C(=O)NC2CCOCC2)ccc1Nc1ncc2c(n1)N(C1CC(F)(F)C1)CC(C)(C)C(=O)N2C [Compound I-171, 4-(9-(3,3-difluorocyclobutyl)-6,7,8,9-tetrahydro-5,7,7-trimethyl-6-oxo-5H-pyrimido[4,5-b][1,4]diazepin-2-ylamino)-N-(tetrahydro-2H-pyran-4-yl)-3-methoxybenzamide] | < 0.01 µM
CCCN1CCC(NC(=O)c2ccc(Nc3ncc4c(n3)N(C3CCCC3)CC(C)(C)C(=O)N4C)c(OC)c2)CC1 [Compound I-69] | < 0.01 µM
CNC(=O)c1ccc(Nc2ncc3c(n2)N(Cc2ccccc2)CC(C)(C)C(=O)N3C)c(OC)c1 [Compound I-122, 4-(9-benzyl-6,7,8,9-tetrahydro-5,7,7-trimethyl-6-oxo-5H-pyrimido[4,5-b][1,4]diazepin-2-ylamino)-3-methoxy-N-methylbenzamide] | 0.01 to 0.1 µM
CN1C(=O)C(C)(C)CN(C2CCCC2)c2nc(Nc3cccc(NC(=O)C4CCC4)c3)ncc21 [Compound I-151, N-(3-(9-cyclopentyl-6,7,8,9-tetrahydro-5,7,7-trimethyl-6-oxo-5H-pyrimido[4,5-b][1,4]diazepin-2-ylamino)phenyl)cyclobutanecarboxamide] | 0.01 to 0.1 µM
COc1cc(C(=O)NC2CCN(C(C)(C)C)CC2)ccc1Nc1ncc2c(n1)N(C1CCCC1)CC(C)(C)C(=O)N2C [Compound I-71, 4-(9-cyclopentyl-6,7,8,9-tetrahydro-5,7,7-trimethyl-6-oxo-5H-pyrimido[4,5-b][1,4]diazepin-2-ylamino)-N-(1-tert-butylpiperidin-4-yl)-3-methoxybenzamide] | < 0.01 µM
CN1C(=O)C(C)(C)CN(C2CCCC2)c2nc(Nc3cccc(NC(=O)CC(F)(F)F)c3)ncc21 [Compound I-145] | 0.01 to 0.1 µM
COc1cc(C(=O)NCCc2cn(C)cn2)ccc1Nc1ncc2c(n1)N(C1CCCC1)CC(C)(C)C(=O)N2C [Compound I-31, 4-(9-cyclopentyl-6,7,8,9-tetrahydro-5,7,7-trimethyl-6-oxo-5H-pyrimido[4,5-b][1,4]diazepin-2-ylamino)-3-methoxy-N-(2-(1-methyl-1H-imidazo-4-yl)ethyl)benzamide] | < 0.01 µM
CC[C@H]1CN(C2CCCC2)c2nc(Nc3ccc(C(=O)NC4CCN(C)CC4)cc3OC)ncc2N(C)C1=O [Compound I-113, 4-((S)-9-cyclopentyl-7-ethyl-6,7,8,9-tetrahydro-5-methyl-6-oxo-5H-pyrimido[4,5-b][1,4]diazepin-2-ylamino)-3-methoxy-N-(1-methylpiperidin-4-yl)benzamide] | < 0.01 µM
CNC(=O)c1ccc(Nc2ncc3c(n2)N([C@@H]2CCNC2)CC(C)(C)C(=O)N3C)c(OC)c1 [Compound I-19, 4-(6,7,8,9-tetrahydro-5,7,7-trimethyl-6-oxo-9-((R)-pyrrolidin-3-yl)-5H-pyrimido[4,5-b][1,4]diazepin-2-ylamino)-3-methoxy-N-methylbenzamide] | 0.01 to 0.1 µM
COc1cc(C(=O)NC2CN(CC3CC3)C2)ccc1Nc1ncc2c(n1)N(C1CCCC1)CC(C)(C)C(=O)N2C [Compound I-53, 4-(9-cyclopentyl-6,7,8,9-tetrahydro-5,7,7-trimethyl-6-oxo-5H-pyrimido[4,5-b][1,4]diazepin-2-ylamino)-N-(1-(cyclopropylmethyl)azetidin-3-yl)-3-methoxybenzamide] | < 0.01 µM

Results, then the compound that gave them:

Ki | Structure (SMILES)
< 0.01 µM | COc1cc(C(=O)NCCF)ccc1Nc1ncc2c(n1)N(C1CCCC1)CC(C)(C)C(=O)N2C [Compound I-279, 4-(9-cyclopentyl-5,7,7-trimethyl-6-oxo-6,7,8,9-tetrahydro-5H-pyrimido[4,5-b][1,4]diazepin-2-ylamino)-N-(2-fluoroethyl)-3-methoxybenzamide]
< 0.01 µM | COc1cc(C(=O)N[C@@H]2CC[C@@H](O)C2)ccc1Nc1ncc2c(n1)N(C1CCCC1)CC1(CC1)C(=O)N2C [Compound I-282, 4-(9′-cyclopentyl-5′-methyl-6′-oxo-5′,6′,8′,9′-tetrahydrospiro[cyclopropane-1,7′-pyrimido[4,5-b][1,4]diazepine]-2′-ylamino)-N-((1R,3R)-3-hydroxycyclopentyl)-3-methoxybenzamide]
< 0.01 µM | COc1cc(C(=O)N[C@@H]2CCCC[C@H]2O)ccc1Nc1ncc2c(n1)N(C1CCCC1)CC(C)(C)C(=O)N2C [Compound I-268, 4-(9-cyclopentyl-5,7,7-trimethyl-6-oxo-6,7,8,9-tetrahydro-5H-pyrimido[4,5-b][1,4]diazepin-2-ylamino)-N-((1R,2R)-2-hydroxycyclohexyl)-3-methoxybenzamide]
< 0.01 µM | COc1cc(C(=O)N2CC(F)(C3CC3)C2)ccc1Nc1ncc2c(n1)N(C1CCCC1)CC(C)(C)C(=O)N2C [Compound I-208, 9-cyclopentyl-2-(4-(3-cyclopropyl-3-fluoroazetidine-1-carbonyl)-2-methoxyphenylamino)-5,7,7-trimethyl-8,9-dihydro-5H-pyrimido[4,5-b][1,4]diazepin-6(7)-one]
< 0.01 µM | COc1cc(C2=NCCN2)ccc1Nc1ncc2c(n1)N(C1CCCC1)CC(C)(C)C(=O)N2C [Compound I-256, 9-cyclopentyl-2-(4-(4,5-dihydro-1H-imidazol-2-yl)-2-methoxyphenylamino)-5,7,7-trimethyl-8,9-dihydro-5H-pyrimido[4,5-b][1,4]diazepin-6(7H)-one]
< 0.01 µM | COc1cc(C(=O)NC[C@H](C)O)ccc1Nc1ncc2c(n1)N(C1CCCC1)CC(C)(C)C(=O)N2C [Compound I-270, (S)-4-(9-cyclopentyl-5,7,7-trimethyl-6-oxo-6,7,8,9-tetrahydro-5H-pyrimido[4,5-b][1,4]diazepin-2-ylamino)-N-(2-hydroxypropyl)-3-methoxybenzamide]
< 0.01 µM | COc1cc(C(=O)NCc2ccncc2)ccc1Nc1ncc2c(n1)N(C1CCCC1)CC1(CC1)C(=O)N2C [Compound I-247, 4-(9′-cyclopentyl-5′-methyl-6′-oxo-5′,6′,8′,9′-tetrahydrospiro[cyclopropane-1,7′-pyrimido[4,5-b][1,4]diazepine]-2′-ylamino)-3-methoxy-N-(pyridin-4-ylmethyl)benzamide]
< 0.01 µM | COc1cc(C(=O)N[C@@H]2CC[C@@H](O)C2)ccc1Nc1ncc2c(n1)N(C1CCCC1)CC(C)(C)C(=O)N2C [Compound I-258]
< 0.01 µM | COc1cc(C(=O)NCC2(O)CCCCC2)ccc1Nc1ncc2c(n1)N(C1CCCC1)CC(C)(C)C(=O)N2C [Compound I-205, 4-(9-cyclopentyl-5,7,7-trimethyl-6-oxo-6,7,8,9-tetrahydro-5H-pyrimido[4,5-b][1,4]diazepin-2-ylamino)-N-((1-hydroxycyclohexyl)methyl)-3-methoxy-benzamide]
< 0.01 µM | COc1cc(C(=O)N[C@H]2CC[C@H](OC(C)=O)CC2)ccc1Nc1ncc2c(n1)N(C1CCCC1)CC(C)(C)C(=O)N2C [Compound I-280, (1r,4r)-4-(4-(9-cyclopentyl-5,7,7-trimethyl-6-oxo-6,7,8,9-tetrahydro-5H-pyrimido[4,5-b][1,4]diazepin-2-ylamino)-3-methoxybenzamido)cyclohexyl acetate]
< 0.01 µM | CCCNC(=O)c1ccc(Nc2ncc3c(n2)N(C2CCCC2)CC(C)(C)C(=O)N3C)c(OC)c1 [Compound I-218, 4-(9-cyclopentyl-5,7,7-trimethyl-6-oxo-6,7,8,9-tetrahydro-5H-pyrimido[4,5-b][1,4]diazepin-2-ylamino)-3-methoxy-N-propylbenzamide]
< 0.01 µM | COc1cc(C(=O)NCC(C)(C)CO)ccc1Nc1ncc2c(n1)N(C1CCCC1)CC(C)(C)C(=O)N2C [Compound I-211, 4-(9-cyclopentyl-5,7,7-trimethyl-6-oxo-6,7,8,9-tetrahydro-5H-pyrimido[4,5-b][1,4]diazepin-2-ylamino)-N-(3-hydroxy-2,2-dimethylpropyl)-3-methoxybenzamide]
< 0.01 µM | COc1cc(C(=O)NN2CCCC2)ccc1Nc1ncc2c(n1)N(C1CCCC1)CC(C)(C)C(=O)N2C [Compound I-206, 4-(9-cyclopentyl-5,7,7-trimethyl-6-oxo-6,7,8,9-tetrahydro-5H-pyrimido[4,5-b][1,4]diazepin-2-ylamino)-3-methoxy-N-(pyrrolidin-1-yl)benzamide]

Reference: patent publication US8394952B2 (Vertex Pharmaceuticals Incorporated, priority 2006, dated 2013)
